Values joined by “and” are separate entries in the source; they are usually repeats but may differ in a detail not shown here. Equal values may be shown once. Read-outs that look alike come from different tables or passages of the source.
Assays:
[1] = target: T1, AChE from Electrophorus electricus (eeAChE) (Electrophorus electricus, UniProt O42275); experiment: biochemical; details: for inhibition at 10 µM: read-out: % Inhibition +/- SD (eeAChE)
T1 construct: purchased Sigma–Aldrich (Steinheim, Germany)
Method: (§1) Compounds selected through virtual screening were tested for their ability to inhibit the activity of selected biological targets. The cholinesterase-inhibitory potency of the compounds was evaluated according to Ellman’s method using AChE obtained from E. electricus (eeAChE) and BuChE obtained from equine serum (eqBuChE).
(§2) The following reagents were purchased from Sigma–Aldrich (Steinheim, Germany): 5,5′-dithiobis-(2-nitrobenzoic acid) (DNTB), acetylthiocholine iodide (ATC), butyrylthiocholine iodide (BTC), AChE from Electrophorus electricus, and BuChE from horse serum. […] The biological assay was performed using Ellman’s method which was modified for 24-well plates. For this assay, 25 µL of the tested compounds or water (in the blank samples) and 20 µL of the enzyme in 765 µL of the buffer were incubated for 5 min at 25 °C before starting the reaction. Then, 20 µL of DTNB and 20 µL of the ATC/BTC solutions were added. […] To determine the IC50 value, the absorbance measured at six different concentrations of the inhibitor was converted to % inhibition of the enzyme and plotted against the applied concentration of the inhibitor, using nonlinear regression (GraphPad Prism 5; GraphPad Software, San Diego, CA, USA). […] All the reactions were performed in triplicate. Data are expressed as the mean ± SEM.

[2] = target: T2, BuChE from equine serum (eqBuChE) (Equus caballus, UniProt P81908); experiment: biochemical; details: for inhibition at 10 µM: 10 µM compound concentration, mean ± standard deviation, read-out: % Inhibition +/- SD (eqBuChE)
T2 construct: BuChE obtained from equine serum (eqBuChE); purchased Sigma–Aldrich (Steinheim, Germany); host or cells: horse serum
Method: as §1, §2

[3] = target: T3, eeAChE (Electrophorus electricus, UniProt O42275); experiment: Kinetic studies of eeAChE inhibition (Lineweaver-Burk, Cornish-Bowden plots); format: biochemical; details: substrate acetylthiocholine
T3 construct: purchased Sigma–Aldrich (Steinheim, Germany)
Method: This was carried out by making use of the calculated values of Vmax and Km of the Michaelis–Menten kinetics and further through analyzing the Lineweaver–Burk and Cornish-Bowden reciprocal plots.
Kinetic studies were carried out by following Ellman’s method modified for 96-well plates, using different concentrations of the substrate. The stock solutions of ATC and BTC (0.02125 M) were prepared in water and diluted before use. The aqueous stock solutions of enzymes (5 U/mL) were diluted to a final concentration of 0.384 U/mL. For each concentration of the test compounds, ATC or BTC was used at a concentration of 0.3, 0.24, 0.18, 0.12, 0.06, and 0.04 mM in the wells. Lineweaver–Burk and Cornish-Bowden plots were generated using linear regression in GraphPad Prism 5 (GraphPad Software, San Diego, CA, USA). Each experiment was performed in triplicate.

[4] = target: T4, eqBuChE (Equus caballus, UniProt P81908); experiment: Kinetic studies of eqBuChE inhibition (Lineweaver-Burk, Cornish-Bowden plots); format: biochemical; details: substrate butyrylthiocholine
T4 construct: BuChE obtained from equine serum (eqBuChE); purchased Sigma–Aldrich (Steinheim, Germany); host or cells: horse serum
Method: […]. This was carried out by making use of the calculated values of Vmax and Km of the Michaelis–Menten kinetics and further through analyzing the Lineweaver–Burk and Cornish-Bowden reciprocal plots. […] […].
Kinetic studies were carried out by following Ellman’s method modified for 96-well plates, using different concentrations of the substrate. The stock solutions of ATC and BTC (0.02125 M) were prepared in water and diluted before use. […]. Lineweaver–Burk and Cornish-Bowden plots were generated using linear regression in GraphPad Prism 5 (GraphPad Software, San Diego, CA, USA). Each experiment was performed in triplicate.

[5] = mean ± SEM of at least three experiments
[6] = read-out: IC50 eeAChE [µM] +/- SEM
[7] = read-out: IC50 eqBuChE [µM] +/- SEM

T2 sequence (P81908 whole entry): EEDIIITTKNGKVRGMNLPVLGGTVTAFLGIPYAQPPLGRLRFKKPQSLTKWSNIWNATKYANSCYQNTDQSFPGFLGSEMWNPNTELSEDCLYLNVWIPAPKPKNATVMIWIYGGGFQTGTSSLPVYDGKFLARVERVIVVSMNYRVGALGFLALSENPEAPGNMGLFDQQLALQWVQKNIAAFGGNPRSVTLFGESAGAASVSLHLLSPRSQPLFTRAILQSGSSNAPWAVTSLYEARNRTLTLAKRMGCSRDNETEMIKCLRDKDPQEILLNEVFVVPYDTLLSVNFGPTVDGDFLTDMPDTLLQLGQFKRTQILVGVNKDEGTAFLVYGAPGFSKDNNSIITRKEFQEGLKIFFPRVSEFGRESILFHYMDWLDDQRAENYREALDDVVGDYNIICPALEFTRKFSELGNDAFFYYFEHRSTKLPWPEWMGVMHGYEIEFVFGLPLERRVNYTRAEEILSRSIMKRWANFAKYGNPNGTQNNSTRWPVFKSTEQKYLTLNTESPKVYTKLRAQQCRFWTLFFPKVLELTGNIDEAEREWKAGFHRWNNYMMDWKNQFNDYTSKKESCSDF
T1 sequence (O42275 24-633): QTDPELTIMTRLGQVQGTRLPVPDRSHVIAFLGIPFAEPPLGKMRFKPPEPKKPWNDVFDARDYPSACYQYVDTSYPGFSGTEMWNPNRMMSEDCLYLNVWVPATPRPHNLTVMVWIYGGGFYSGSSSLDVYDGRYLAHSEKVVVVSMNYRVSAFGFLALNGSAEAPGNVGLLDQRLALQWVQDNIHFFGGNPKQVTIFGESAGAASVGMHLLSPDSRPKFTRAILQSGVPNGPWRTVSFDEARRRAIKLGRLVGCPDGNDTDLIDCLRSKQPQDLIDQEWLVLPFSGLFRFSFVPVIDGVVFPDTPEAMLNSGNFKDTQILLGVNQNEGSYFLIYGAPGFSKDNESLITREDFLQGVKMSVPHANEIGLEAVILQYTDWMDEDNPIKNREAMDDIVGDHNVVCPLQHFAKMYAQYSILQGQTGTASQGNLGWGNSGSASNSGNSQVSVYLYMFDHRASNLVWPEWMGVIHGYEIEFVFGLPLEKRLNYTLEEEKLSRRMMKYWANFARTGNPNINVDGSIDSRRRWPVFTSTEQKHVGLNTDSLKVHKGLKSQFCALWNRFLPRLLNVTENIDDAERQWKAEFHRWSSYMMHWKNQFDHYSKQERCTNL
T4 sequence (P81908 whole entry): as the sequence (P81908 whole entry) above
T3 sequence (O42275 24-633): as the sequence (O42275 24-633) above

Structure (SMILES) | inhibition at 10 µM [1] | inhibition at 10 µM [2] | IC50 [2, 5] | IC50 [1, 6] | IC50 [2, 7] | IC50 [1, 5] | type of eeAChE inhibition [3] | type of eqBuChE inhibition [4]
O=C1c2ccccc2C(=O)N1CCCN1c2cccnc2Sc2cccnc21 [Compound 5] | 7.3 ± 0.9% | 52.5 ± 5.9% | 10.1 ± 0.441 µM | – | – | – | – | –
C(#CCN1c2cnccc2Sc2cccnc21)CN1CCCC1 [Compound 7] | 57.3 ± 0.4% | 91.1 ± 0.8% | – | 10 ± 0.604 µM | 0.929 ± 0.016 µM | – | – | –
C(#CCN1c2cccnc2Sc2cccnc21)CN1CCCCC1 [Compound 2, 10-(4-Piperidin-1-yl-but-2-ynyl)-1,6-diazaphenothiazine] | 60.3 ± 8.8% | 56.6 ± 2.4% | 8.94 ± 0.239 µM | – | – | 8.31 ± 0.315 µM | – | –
CCN(C)CC#CCN1c2ccncc2Sc2ncccc21 [Compound 14] | 7.7 ± 2.1% | 20.4 ± 1.9% | – | – | – | – | – | –
C(#CCN1c2cccnc2Sc2cccnc21)CN1CCOCC1 [Compound 3, 10-(4-Morpholin-4-yl-but-2-ynyl)-1,6-diazaphenothiazine] | 13.7 ± 1.5% | 63.6 ± 2.4% | 9.25 ± 0.275 µM | – | – | – | – | –
CN1CCCCC1CCN1c2cnccc2Sc2cccnc21 (stereo not shown) [Compound 9] | 58.1 ± 4.1% | 76.4 ± 0.2% | – | 6.55 ± 0.177 µM | 3.03 ± 0.072 µM | – | – | –
NCCCCN1c2ccc(F)cc2Sc2cc3ccccc3nc21 [Compound 22] | 2.3 ± 2.1% | 64.7 ± 1% | 3.93 ± 0.196 µM | – | – | – | – | –
CCN(CC)CC#CCN1c2ccncc2Sc2ncccc21 [Compound 15] | 10.1 ± 3.1% | 17.2 ± 7.3% | – | – | – | – | – | –
CN1CCCCC1CCN1c2ccncc2Sc2ncccc21 (stereo not shown) [Compound 17] | 33 ± 4.5% | 16.1 ± 0.7% | – | – | – | – | – | –
CN1CCCCC1CCN1c2cccnc2Sc2cccnc21 (stereo not shown) [Compound 4] | 22.4 ± 1.1% | 57 ± 7.4% | 9.49 ± 0.33 µM | – | – | – | – | –
NCCCN1c2ccc(F)cc2Sc2cc3ccccc3nc21 [Compound 21] | 6.5 ± 2.8% | 76.3 ± 1.2% | 2.51 ± 0.047 µM | – | – | – | – | –
CSc1ccc2c(c1)Sc1cc3ccccc3nc1N2CC#CCN1CCCC1 [Compound 25] | 78 ± 1.4% | 99.9 ± 0.7% | – | 2.22 ± 0.062 µM | 0.506 ± 0.014 µM | – | – | –
C(#CCN1c2cccnc2Sc2cccnc21)CN1CCCC1 [Compound 1, 10-(4-Pyrrolidin-1-yl-but-2-ynyl)-1,6-diazaphenothiazine] | 45.4 ± 9.8% | 65.4 ± 3% | 5.75 ± 0.164 µM | – | – | – | – | –
CN(C)CCCN1c2cnccc2Sc2cccnc21 [Compound 6] | 20.4 ± 3.6% | 85.8 ± 0.5% | – | – | 0.87 µM and 0.865 µM | – | – | –
O=C1c2ccccc2C(=O)N1CCCN1c2ccncc2Sc2ncccc21 [Compound 18] | 72.2 ± 0.7% | 30.5 ± 5.7% | – | – | – | 4.26 ± 0.078 µM | – | –
O=C1c2ccccc2C(=O)N1CCCN1c2cnccc2Sc2cccnc21 [Compound 10] | 49.6 ± 1.3% | 71.9 ± 4.3% | – | – | 3.67 ± 0.054 µM | – | – | –
c1cnc2c(c1)Sc1ccncc1N2CCN1CCCCC1 [Compound 8] | 33.5 ± 1.6% | 66 ± 3.4% | – | – | 4.44 ± 0.049 µM | – | – | –
CN1c2ccc(F)cc2Sc2cc3ccccc3nc21 [Compound 20] | 3 ± 1.6% | 35.3 ± 12.3% | – | – | – | – | – | –
C(#CCN1c2ccncc2Sc2ncccc21)CN1CCCC1 [Compound 16] | 21.9 ± 5.7% | 58.5 ± 9% | 10.4 ± 0.308 µM | – | – | – | – | –
Fc1ccc2c(c1)Sc1cc3ccccc3nc1N2 [Compound 19] | 6.6 ± 1.3% | 81 ± 1.4% | – | – | 1.02 ± 0.028 µM | – | – | –
C(#CCN1c2ccncc2Sc2ccncc21)CN1CCCC1 [Compound 12] | 20.3 ± 1% | 31.4 ± 1.7% | – | – | – | – | – | –
Fc1ccc2c(c1)Sc1cc3ccccc3nc1N2CCN1CCCCC1 [Compound 23, 9-Fluoro-6-(1-piperidylethyl)quinobenzothiazine] | 27 ± 2.8% | 97.7 ± 0.5% | – | – | 0.46 µM and 0.463 µM | – | – | –
CCN(CC)CC#CCN1c2ccncc2Sc2ccncc21 [Compound 11] | 20.1 ± 1.4% | 20.7 ± 0.9% | – | – | – | – | – | –
CCN(CC)CC#CCN1c2ccc(SC)cc2Sc2cc3ccccc3nc21 [Compound 24, 6-(4-diethylaminobut-2-ynyl)-9-methylthioquinobenzothiazine] | 83.4 ± 1.1% | 95.5 ± 0.8% | – | 0.784 ± 0.018 µM | 0.535 ± 0.013 µM | – | noncompetitive | noncompetitive
C(#CCN1c2ccncc2Sc2ccncc21)CN1CCCCC1 [Compound 13] | 51.6 ± 3.2% | 37.6 ± 1.6% | – | 11.3 ± 0.464 µM | – | – | – | –
